The source of these data is patent publication US20230136569A1, “USE OF NMN TO REDUCE IMMUNODEPRESSION AND IMMUNOSENESCENCE” (NUVAMID SA, priority 2020, published 2023).

Assay type in all cases: in vivo
One experiment deals with thymus. In words: Weight and size of the thymus (thymic involution) in old mice. The conditions noted are these: old mice (15 months), 500 mg/kg p.o. in drinking water; α-NMN 4 weeks, β-NMN 6 weeks; vs non-treated old mice (FIG. 2). The protocol:
The administering of β-NMN at 500 mg/kg, of α-NMN at 500 mg/kg and of the vehicle (water) was obtained via oral route (p.o) in the drinking water to young and old mice. The solutions were prepared by dissolving the powder of β-NMN or α-NMN in the vehicle (water). The study comprised 4 groups each having 6 mice: • Group 1: young mice (aged 10 weeks)+drinking water (vehicle) • Groupe 2: old mice (aged 15 months)+drinking water (vehicle) • Group 3: old mice (aged 15 months)+compound I-B (alpha-NMN) in the drinking water • Group 4: old mice (aged 15 months)+compound I-A (beta-NMN) in the drinking water The water consumption of the mice was assessed per cage every other day. The mice were weighed every week. The mice in Group 3 were sacrificed after 4 weeks for organ collection and characterisation of T cell function. The mice in Group 4 were sacrificed after 6 weeks for organ collection and characterisation of T cell function. On the day of sacrifice, the mice were anaesthetised with Vetoflurane (isoflurane) and blood samples were taken from the retroorbital sinus. The blood was incubated for 30 minutes at ambient temperature and then centrifuged at 1300 g for 10 minutes. […] The thymus was weighed and measured to evaluate involution thereof. […] Measured parameters: The results of flow cytometry are expressed in number or as a proportion of cells per organ. […]

Experiment [1] has as its system B cells in the bone marrow. The experiment in a line: Flow cytometry of B cells in bone marrow of old mice. To be noted: 500 mg/kg p.o., α-NMN 4 weeks; for number of CD38+ B cells in bone marrow: β-NMN 6 weeks (FIG. 4B); for number of CD45+ B cells in bone marrow: β-NMN 6 weeks (FIG. 5A); for number of pre-pro-B cells in bone marrow: β-NMN 6 weeks (FIG. 5B); for number of pro-B cells in bone marrow: β-NMN 6 weeks (FIG. 5C); for number of pre-B cells in bone marrow: β-NMN 6 weeks (FIG. 5D); for number of immature B cells in bone marrow: β-NMN 6 weeks (FIG. 5E); for number of B cells in bone marrow: β-NMN 6 weeks, vs non-treated old mice (FIG. 4A). The protocol:
The administering of β-NMN at 500 mg/kg, of α-NMN at 500 mg/kg and of the vehicle (water) was obtained via oral route (p.o) in the drinking water to young and old mice. The solutions were prepared by dissolving the powder of β-NMN or α-NMN in the vehicle (water). The study comprised 4 groups each having 6 mice: • Group 1: young mice (aged 10 weeks)+drinking water (vehicle) • Groupe 2: old mice (aged 15 months)+drinking water (vehicle) • Group 3: old mice (aged 15 months)+compound I-B (alpha-NMN) in the drinking water • Group 4: old mice (aged 15 months)+compound I-A (beta-NMN) in the drinking water The water consumption of the mice was assessed per cage every other day. The mice were weighed every week. The mice in Group 3 were sacrificed after 4 weeks for organ collection and characterisation of T cell function. The mice in Group 4 were sacrificed after 6 weeks for organ collection and characterisation of T cell function. On the day of sacrifice, the mice were anaesthetised with Vetoflurane (isoflurane) and blood samples were taken from the retroorbital sinus. The blood was incubated for 30 minutes at ambient temperature and then centrifuged at 1300 g for 10 minutes. After sacrificing of the mice, the spleen, thymus, and bone marrow of each animal were removed. The thymus was weighed and measured to evaluate involution thereof. For illustration purposes, photos of the thymus were taken on 5 animals per group. The thymus was divided into two parts: one part was treated with formol for histological examination. The second part was treated for characterisation of the immune cells. For characterisation of the cells, the thymus and spleen were crushed through a sieve of […] over a 50 mL tube with a syringe plunger. The bone marrow was rinsed with RPMI culture medium using a needle and syringe. The cell suspension was then centrifuged at 400 g for 5 minutes at 4° C. Lysis of the red blood cells was also performed before the cell count and use thereof for cytometry. The isolated cells of the spleen, thymus and bone marrow were marked with antibodies in accordance with the following tables to identify the proportion of effector and memory naive T and B cells. The following bone marrow cells were also examined for characterisation as a function of the combination of proteins on the surface thereof: [table] Measured parameters: The results of flow cytometry are expressed in number or as a proportion of cells per organ. The weight of the thymus is expressed in grams.

Experiment [2] concerns CD4+ and CD8+ T cells (splenocytes). The experiment in a line: Proliferation assay of CFSE-stained splenocytes from treated mice after stimulation. To be noted: splenocytes of treated old mice, anti-CD3/CD28 beads 96 h. The protocol:
Proliferation assay: At D0+5 weeks, the splenocytes were marked with 2.5 μM CFSE and cultured at a concentration of 0.25×10^6 cells per well in a 96-well plate. The cells were stimulated with 2.5 μg InfluvacTetra® and incubated at 37° C. for 96 hours. The cells were then marked with anti-CD4 and CD8 antibodies and the proliferation of the T CD4+ and CD8+ cells was analysed by flow cytometry. The total splenocytes were stained with Carboxyfluorescein succinimidyl ester (CFSE) and stimulated with beads coated with anti-CD3/CD28 for 96 h. The mean fluorescence intensity of the CFSE was analysed and the ratio before and after stimulation was calculated.

In experiment [3] the test system is CD4+ T cells producing IFNγ or IL10. In words: Cytokine production by splenocytes stimulated with anti-CD3/CD28 beads for 18 h. The conditions noted are these: splenocytes of treated old mice, anti-CD3/CD28 beads 18 h (FIG. 10A). The protocol:
The total splenocytes were stimulated with beads coated with anti-CD3/CD28 for 18 h. As shown in FIGS. 10A and 10B, ageing reduced the proportion of cells producing IFNγ and IL10 when simulated with beads coated with anti-CD3/CD28.

As to `NC(=O)c1ccc[n+]([C@@H]2O[C@H](COP(=O)([O-])O)[C@@H](O)[C@H]2O)c1` (stereo in doubt) [I-A, nicotinamide mononucleotide], the “weight and size of the thymus” value in the experiment on thymus is recorded as “significant increase in the size of the thymus”. For the same compound, in experiment [1], the “number of CD38+ B cells in bone marrow” value is on record as “restoring of the number of CD38+ B cells to the level expressed by the young mice”, the “number of CD45+ B cells in bone marrow” value was “significant increase in the number of CD45+ B cells”, the “number of pre-pro-B cells in bone marrow” value is given as “increase in the number of pre-pro B cells” and the “number of pro-B cells in bone marrow” value is “does not show any impact on the number of pro-B cells”. In experiment [1], the “number of pre-B cells in bone marrow” value was “increase in the number of pre-B cells”, the “number of immature B cells in bone marrow” value is reported as “increase” and the “number of B cells in bone marrow” value is “significant increase in the number of B cells”. Also, the “proliferation of CD4 cells” value in experiment [2] (compared with the three other groups (FIG. 9A)) was “significant increase in the proliferation of CD4 and CD8 cells”. Besides, the “proliferation of CD8 cells” value in experiment [2] (compared with the three other groups (FIG. 9B)) is “significant increase in the proliferation of CD4 and CD8 cells”. Moreover, the “response to stimulation: proportion of cells producing IFNγ” value in experiment [3] is listed as “lack of response”.
For `NC(=O)c1ccc[n+]([C@H]2O[C@H](COP(=O)([O-])O)[C@@H](O)[C@H]2O)c1` (stereo in doubt) [I-B, alpha nicotinamide mononucleotide], in the experiment with thymus, the “weight and size of the thymus” value is on record as “did not allow an increase in the volume or size of the thymus”. Also, in experiment [1], the “number of CD38+ B cells in bone marrow” value is “restoring of the number of CD38+ B cells to the level expressed by the young mice”, the “number of CD45+ B cells in bone marrow” value is “significant increase in the number of CD45+ B cells”, the “number of pre-pro-B cells in bone marrow” value is “increase in the number of pre-pro B cells” and the “number of pro-B cells in bone marrow” value is on record as “does not show any impact on the number of pro-B cells”. Further, in experiment [1], the “number of pre-B cells in bone marrow” value is reported as “increase in the number of pre-B cells”, the “number of immature B cells in bone marrow” value is “increase” and the “number of B cells in bone marrow” value is “significant increase in the number of B cells”. For the same compound, in experiment [3], the “response to stimulation: proportion of cells producing IFNγ” value is listed as “the response to stimulation was lower”.
